The supplement of paper PMC10307832

What follows are cell lines tested with CN1CCN(CC1)C2=CC(=C(C=C2)NC3=NC(=C(S3)C(=O)C4=C(C=CC=C4Cl)Cl)N)OC [XMD14-99] + Cc1nc(NC(=O)N2CCC[C@H]2C(N)=O)sc1-c1ccnc(C(C)(C)C(F)(F)F)c1 [Alpelisib] (partner 2 µM) (assay: relative viability (nuclei count vs DMSO), 5 days (fraction); higher = more cells survive). Details: first compound 0.08 µM.
How it was run: (§1)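 Five library-drug doses in √10 steps were combined with a fixed anchor-drug dose, or a single drug was given alone, by pin tool to lung cancer cell lines in 1536-well plates the day after seeding. Nuclei were stained and counted after 5 days. Relative viability is the nuclei count in treated wells over that in vehicle wells, taken as the median of duplicate plates.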

| Cell Line | relative viability |
| --- | --- |
| NCI-H1793 | 0.77 |
| PC-3 [JPC-3] | 1.06 |
| EKVX | 0.767 |
| LC-2-ad | 0.855 |
| NCI-H1944 | 0.902 |
| NCI-H1975 | 0.715 |
| SK-LU-1 | 0.893 |
| NCI-H358 | 0.751 |
| NCI-H661 | 0.798 |
| RERF-LC-KJ | 0.718 |

Same assay, conditions: first compound 0.8 µM

| Cell Line | relative viability |
| --- | --- |
| NCI-H1793 | 0.641 |
| PC-3 [JPC-3] | 0.947 |
| EKVX | 0.985 |
| LC-2-ad | 0.863 |
| NCI-H1944 | 0.867 |
| NCI-H1975 | 0.605 |
| SK-LU-1 | 0.96 |
| NCI-H358 | 0.841 |
| NCI-H661 | 0.564 |
| RERF-LC-KJ | 0.917 |

Same assay, conditions: first compound 2.53 µM

| Cell Line | relative viability |
| --- | --- |
| NCI-H1793 | 0.666 |
| PC-3 [JPC-3] | 0.916 |
| EKVX | 0.876 |
| LC-2-ad | 0.839 |
| NCI-H1944 | 0.805 |
| NCI-H1975 | 0.553 |
| SK-LU-1 | 0.996 |
| NCI-H358 | 0.715 |
| NCI-H661 | 0.594 |
| RERF-LC-KJ | 0.75 |

Same assay, conditions: first compound 8 µM

| Cell Line | relative viability |
| --- | --- |
| NCI-H1793 | 0.476 |
| PC-3 [JPC-3] | 0.893 |
| EKVX | 0.696 |
| LC-2-ad | 0.633 |
| NCI-H1944 | 0.755 |
| NCI-H1975 | 0.378 |
| SK-LU-1 | 0.598 |
| NCI-H358 | 0.304 |
| NCI-H661 | 0.356 |
| RERF-LC-KJ | 0.588 |

The cell lines below were run with N[C@@H]1CCCN(c2c(/C=C3\SC(=O)NC3=O)cccc2-c2ccccc2)C1 [AZD1208] + CC(=O)Nc1cccc(-n2c(=O)n(C3CC3)c(=O)c3c(Nc4ccc(I)cc4F)n(C)c(=O)c(C)c32)c1 [Trametinib] (partner 0.02 µM) in the same assay as above. Details: first compound 0.08 µM.
How it was run: as §1

| Cell Line | relative viability |
| --- | --- |
| NCI-H1793 | 0.356 |
| PC-3 [JPC-3] | 0.732 |
| EKVX | 0.35 |
| LC-2-ad | 0.92 |
| NCI-H1944 | 0.402 |
| NCI-H1975 | 0.304 |
| SK-LU-1 | 0.46 |
| NCI-H358 | 0.118 |
| NCI-H661 | 0.549 |
| RERF-LC-KJ | 0.903 |

Same assay, conditions: first compound 0.253 µM

| Cell Line | relative viability |
| --- | --- |
| NCI-H1793 | 0.566 |
| PC-3 [JPC-3] | 0.825 |
| EKVX | 0.387 |
| LC-2-ad | 0.917 |
| NCI-H1944 | 0.433 |
| NCI-H1975 | 0.341 |
| SK-LU-1 | 0.531 |
| NCI-H358 | 0.109 |
| NCI-H661 | 0.565 |
| RERF-LC-KJ | 0.844 |

Same assay, conditions: first compound 0.8 µM

| Cell Line | relative viability |
| --- | --- |
| NCI-H1793 | 0.33 |
| PC-3 [JPC-3] | 0.688 |
| EKVX | 0.306 |
| LC-2-ad | 0.664 |
| NCI-H1944 | 0.359 |
| NCI-H1975 | 0.283 |
| SK-LU-1 | 0.446 |
| NCI-H358 | 0.12 |
| NCI-H661 | 0.544 |
| RERF-LC-KJ | 0.727 |

Same assay, conditions: first compound 2.53 µM

| Cell Line | relative viability |
| --- | --- |
| NCI-H1793 | 0.473 |
| PC-3 [JPC-3] | 0.711 |
| EKVX | 0.309 |
| LC-2-ad | 0.933 |
| NCI-H1944 | 0.328 |
| NCI-H1975 | 0.36 |
| SK-LU-1 | 0.491 |
| NCI-H358 | 0.12 |
| NCI-H661 | 0.543 |
| RERF-LC-KJ | 0.776 |

Same assay, conditions: first compound 8 µM

| Cell Line | relative viability |
| --- | --- |
| NCI-H1793 | 0.342 |
| PC-3 [JPC-3] | 0.723 |
| EKVX | 0.45 |
| LC-2-ad | 0.935 |
| NCI-H1944 | 0.283 |
| NCI-H1975 | 0.249 |
| SK-LU-1 | 0.585 |
| NCI-H358 | 0.102 |
| NCI-H661 | 0.514 |
| RERF-LC-KJ | 0.548 |

Each cell line was assayed with N[C@@H]1CCCN(c2c(/C=C3\SC(=O)NC3=O)cccc2-c2ccccc2)C1 [AZD1208] + CCNC(=O)c1noc(-c2cc(C(C)C)c(O)cc2O)c1-c1ccc(CN2CCOCC2)cc1 [Luminespib] (partner 0.01 µM) in the same assay as above. Details: first compound 0.08 µM.
How it was run: as §1

| Cell Line | relative viability |
| --- | --- |
| NCI-H1793 | 0.181 |
| PC-3 [JPC-3] | 0.668 |
| EKVX | 0.981 |
| LC-2-ad | 0.943 |
| NCI-H1944 | 0.765 |
